Earlier results, collected in patent US20040248901A1, “Compositions containing itraconazole and their preparation methods” (priority 2001, published 2004).

Details: background art

In the case of `CCC(C)n1ncn(-c2ccc(N3CCN(c4ccc(OCC5COC(Cn6cncn6)(c6ccc(Cl)cc6Cl)O5)cc4)CC3)cc2)c1=O` (mixture of isomers) [itraconazole, (±)-cis-4-[4-[4-[4-[[2-(2,4-dichlorophenyl)-2-(1H-1,2,4-triazol-1-ylmethyloxolan-4-yl]methoxy]phenyl]-1-piperazinyl]phenyl]-2,4-dihydro-2-(1-methylpropyl)-3H-1,2,4-triazol-3-one], the solubility in water is listed as no more than 1 µg/mL.
